From US5258492A, “LHRH analogues with cytotoxic moieties at the sixth position” (The Administrators of the Tulane Educational Fund, priority 1991, dated 1993)
Values belong to the substance of their own block, whether it stands above or below them.

Assays:
[1] = biological target: T1, membrane receptors of human breast cancer cells (Homo sapiens, UniProt P30968); test: Binding affinity for membrane receptors of human breast cancer cells using 125I-labeled [D-Trp6]LHRH; conditions: Table 1, high affinity binding sites
T1 construct: endogenous in cells; host or cells: human breast cancer cells (membranes)
T1 sequence (P30968 1-328): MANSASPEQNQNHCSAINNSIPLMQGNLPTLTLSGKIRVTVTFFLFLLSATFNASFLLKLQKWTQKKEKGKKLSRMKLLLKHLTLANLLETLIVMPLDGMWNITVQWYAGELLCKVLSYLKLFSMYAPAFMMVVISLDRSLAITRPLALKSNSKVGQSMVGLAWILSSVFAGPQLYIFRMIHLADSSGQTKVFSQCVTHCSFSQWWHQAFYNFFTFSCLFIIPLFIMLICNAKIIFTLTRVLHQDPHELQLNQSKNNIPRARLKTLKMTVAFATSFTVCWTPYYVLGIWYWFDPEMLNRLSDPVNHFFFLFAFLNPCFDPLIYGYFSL
Method: (§1) This is determined by using labelled LHRH and [D-Trp^6 ]LHRH. The assay is carried out similarly to that described by T. Kadar et al., Proc. Natl. Acad. Sci. USA, 85, 890-894 (1988).
(§2) Table 2 presents the antiovulatory activity of the claimed compounds having LHRH-inhibiting properties. The inhibitory action was determined in vivo, in 4-day cycling rats as described [A. Corbin and C. W. Beattie, Endocr. Res. Commun., 2, 1-23 (1975)]. Affinities of the claimed compounds to membrane receptors of rat pituitary and human breast cancer cells are also given in Tables 1 and 2 as determined by using [^125 I,D-Trp^6 ]LHRH.
(§3) **Affinity constants of the peptides for the first receptor class (i.e.
(§4) for high affinity binding sites) of pituitary of male rats and human
(§5) breast cancer cells, respectively, as determined by using ^125
(§6) Ilabeled [DTrp^6 ]LHRH.
(§7) breast cancer cells, respectively, were determined by using ^125

[2] = tested on: dispersed rat pituitary cell superfusion system; test: LH release in dispersed rat pituitary cell superfusion system (agonistic activity); type: cell-based; conditions: Table 1; peptide infused 3 min, LH released compared to 3 nM LHRH
Method: *LH responses to the analogues were determined in dispersed rat pituitary
cell superfusion system.

[3] = biological target: T2, membrane receptors of pituitary of male rats (Rattus norvegicus, UniProt P30969); test: Binding affinity for membrane receptors of rat pituitary using 125I-labeled [D-Trp6]LHRH; conditions: Table 1, high affinity binding sites
T2 construct: from tissue; host or cells: pituitary of male rats (membranes)
T2 sequence (P30969 1-327): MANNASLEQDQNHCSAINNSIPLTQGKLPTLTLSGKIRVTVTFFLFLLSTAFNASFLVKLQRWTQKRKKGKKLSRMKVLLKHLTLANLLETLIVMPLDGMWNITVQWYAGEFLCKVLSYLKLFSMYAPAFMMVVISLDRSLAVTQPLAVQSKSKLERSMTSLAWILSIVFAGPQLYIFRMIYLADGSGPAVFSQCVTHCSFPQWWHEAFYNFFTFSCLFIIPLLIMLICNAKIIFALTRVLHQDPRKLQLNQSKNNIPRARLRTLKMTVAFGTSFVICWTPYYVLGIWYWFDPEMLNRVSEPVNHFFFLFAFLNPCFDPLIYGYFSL
Method: as §1, §2, §3, §4, §5, §6, §7

[4] = tested on: rat mammary tumor cell line MT-4; test: Inhibition of 3H-thymidine incorporation into DNA of MT-4 monolayer cultures; type: cell-based; conditions: for DPM/Well × 1000: mean +/- standard error
Method: (d) Ability of peptides of Formula I to inhibit incorporation of [^3 H]thymidine into DNA of monolayer cultures the rat mammary tumor cell line MT-4
This is assayed as described [V. K. Sondak et al., Cancer Research, 44, 1725-1728 (1984); F. Holzel et al., J. Cancer Res. Clin. Oncol. 109, 217-226 (1985); M. Albert et al., J. Cancer Res. Clin. Oncol. 109, 210-216 (1985)].
To obtain information about the cytotoxic properties of the compounds, the inhibition of ^3 H-thymidine incorporation into DNA of monolayer cultures of the rat mammary tumor cell line MT-4 was studied. Experiments started with 100K MT-4 cells/plate on day 0. Dose was changed 3 times, total incubation time with the sample was 5 days. 1 μCu ^3 H-thymidine/ml was added on day 4.

[5] = DME Medium + 0% Serum, 1 ng/ml (6 × 10^-10 M)
[6] = DME Medium + 0% Serum, 10 ng/ml
[7] = DME Medium + 0% Serum, 100 ng/ml
[8] = DME Medium + 0% Serum, 1000 ng/ml
[9] = DME Medium + 0% Serum, 2000 ng/ml
[10] = DME Medium + 10% Serum, 1 ng/ml (6 × 10^-10 M)
[11] = DME Medium + 10% Serum, 10 ng/ml
[12] = DME Medium + 10% Serum, 100 ng/ml
[13] = DME Medium + 10% Serum, 1000 ng/ml
[14] = DME Medium + 10% Serum, 2000 ng/ml

Binding affinity, Ka1, for membrane receptors of cancer cells [1]: 0.536 nM⁻¹ | Binding affinity, Ka1, for membrane receptors of pituitary [3]: 1.770 nM⁻¹
Substance: pGlu-His-Trp-Ser-Tyr-D-Lys[(Cu^++)(FUR)2 (DL-A2 pr)]-Leu-Arg-Pro-Gly-NH2 [XVII]
Hormonal activity, LH responses rel. to LHRH (= 1) [2]: 10

Binding affinity, Ka1, for membrane receptors of cancer cells [1]: 5.096 nM⁻¹ | Binding affinity, Ka1, for membrane receptors of pituitary [3]: 10.989 nM⁻¹
Substance: pGlu-His-Trp-Ser-Tyr-D-Lys[(Cu^++)(PEN)2 (A2 pr)]-Leu-Arg-Pro-Gly-NH2 [Example XXI]
Hormonal activity, LH responses rel. to LHRH (= 1) [2]: 10.6

Binding affinity, Ka1, for membrane receptors of cancer cells [1]: 3.141 nM⁻¹ | Binding affinity, Ka1, for membrane receptors of pituitary [3]: 6.405 nM⁻¹
Substance: pGlu-His-Trp-Ser-Tyr-D-Lys[(Cu^++)(POL)2 (DL-A2 bu)]-Leu-Arg-Pro-Gly-NH2 [XXV]
Hormonal activity, LH responses rel. to LHRH (= 1) [2]: 5.5

Binding affinity, Ka1, for membrane receptors of cancer cells [1]: 5.038 nM⁻¹ | Binding affinity, Ka1, for membrane receptors of pituitary [3]: 9.751 nM⁻¹
Substance: pGlu-His-Trp-Ser-Tyr-D-Lys[(Cu^++)(POLP)2 (DL-A2 bu)]-Leu-Arg-Pro-Gly-NH2 [Example XVI]
Hormonal activity, LH responses rel. to LHRH (= 1) [2]: 1.5

Binding affinity, Ka1, for membrane receptors of cancer cells [1]: 3.589 nM⁻¹ | Binding affinity, Ka1, for membrane receptors of pituitary [3]: 7.968 nM⁻¹
Substance: pGlu-His-Trp-Ser-Tyr-D-Lys[(Cu^++)(SAL)2 (A2 pr)]-Leu-Arg-Pro-Gly-NH2 [Example VII]
% Inhibition [4, 5]: 41% | DPM/Well × 1000 [4, 5]: 249 +/- 30.5 DPM/Well × 1000 | % Inhibition [4, 6]: 42% | DPM/Well × 1000 [4, 6]: 242 +/- 32.1 DPM/Well × 1000 | % Inhibition [4, 7]: 56% | DPM/Well × 1000 [4, 7]: 186 +/- 13.2 DPM/Well × 1000 | % Inhibition [4, 8]: 52% | DPM/Well × 1000 [4, 8]: 204 +/- 40.9 DPM/Well × 1000 | % Inhibition [4, 9]: 41% | DPM/Well × 1000 [4, 9]: 249 +/- 45.1 DPM/Well × 1000 | % Inhibition [4, 10]: 53% | DPM/Well × 1000 [4, 10]: 48 +/- 8.6 DPM/Well × 1000 | % Inhibition [4, 11]: 61% | DPM/Well × 1000 [4, 11]: 40 +/- 6.7 DPM/Well × 1000 | % Inhibition [4, 12]: 59% | DPM/Well × 1000 [4, 12]: 42 +/- 10.4 DPM/Well × 1000 | % Inhibition [4, 13]: 65% | DPM/Well × 1000 [4, 13]: 36 +/- 5.1 DPM/Well × 1000 | % Inhibition [4, 14]: 62% | DPM/Well × 1000 [4, 14]: 39 +/- 4.6 DPM/Well × 1000 | inhibition of 3H-thymidine incorporation into DNA (in words) ([4]; concentration of 6×10^-10 M): strong inhibitory effect | Hormonal activity, LH responses rel. to LHRH (= 1) [2]: 10

Binding affinity, Ka1, for membrane receptors of cancer cells [1]: 1.628 nM⁻¹ | Binding affinity, Ka1, for membrane receptors of pituitary [3]: 5.589 nM⁻¹
Substance: pGlu-His-Trp-Ser-Tyr-D-Lys[(Cu^++)(SAL)2 (DL-A2 bu)]-Leu-Arg-Pro-Gly-NH2 [XIV]
Hormonal activity, LH responses rel. to LHRH (= 1) [2]: 25

Binding affinity, Ka1, for membrane receptors of cancer cells [1]: 2.236 nM⁻¹ | Binding affinity, Ka1, for membrane receptors of pituitary [3]: 4.513 nM⁻¹
Substance: pGlu-His-Trp-Ser-Tyr-D-Lys[(Ni^++)(CISAL)2 (DL-A2 pr)]-Leu-Arg-Pro-Gly-NH2 [Example X]
Hormonal activity, LH responses rel. to LHRH (= 1) [2]: 4

Binding affinity, Ka1, for membrane receptors of cancer cells [1]: 1.743 nM⁻¹ | Binding affinity, Ka1, for membrane receptors of pituitary [3]: 3.285 nM⁻¹
Substance: pGlu-His-Trp-Ser-Tyr-D-Lys[(PtCl2)(DL-A2 pr)]-Leu-Arg-Pro-Gly-NH2 [Example III]
Hormonal activity, LH responses rel. to LHRH (= 1) [2]: 55

Binding affinity, Ka1, for membrane receptors of cancer cells [1]: 3.005 nM⁻¹ | Binding affinity, Ka1, for membrane receptors of pituitary [3]: 5.817 nM⁻¹
Substance: pGlu-His-Trp-Ser-Tyr-D-Lys[Cu^++)(POL)2 (DL-A2 pr)]-Leu-Arg-Pro-Gly-NH2 [XVIII]
Hormonal activity, LH responses rel. to LHRH (= 1) [2]: 9

Binding affinity, Ka1, for membrane receptors of cancer cells [1]: 4.528 nM⁻¹ | Binding affinity, Ka1, for membrane receptors of pituitary [3]: 8.676 nM⁻¹
Substance: pGlu-His-Trp-Ser-Tyr-D-Lys[Cu^++)(POLP)2 (A2 pr)]-Leu-Arg-Pro-Gly-NH2 [XIX]
Hormonal activity, LH responses rel. to LHRH (= 1) [2]: 0.3
